Counter-ions that a name gives are not always drawn.
What was measured:
[1] = Solubility in water at the indicated pH; assay type: physicochemical
From the text: The following Table 2 reports the solubility in water at the indicated pH of a representative compound of the invention (R,S)-2-amino-4-(3',4'-difluorophenyl)-4-oxo-2-butanoic acid hydrochloride (PNU 156830) in comparison with the known reference compound of WO 95/03271: (R,S)-2-amino-4-(3',4'-dichlorophenyl)-4-oxo-butanoic acid hydrochloride (internal code: PNU 156561).

kynurenine-3-hydroxylase [2] = molecular target: T1, kynurenine-3-hydroxylase (Rattus norvegicus, UniProt O88867); test: Kynurenine-3-hydroxylase assay in the rat liver (mitochondrial extract); assay type: biochemical; parameters: Rat liver mitochondrial extract was used as enzymatic preparation for this assay; from tissue; host or cells: rat liver mitochondrial extract; settings: 0.025 mM L-kynurenine, 37° C., 30 min, read-out: Enzyme Inhibition (Liver) IC50
Method: Kynurenine-3-hydroxylase Assay in the Rat Liver
The assay for kynurenine 3-hydroxylase was based on the enzymatic synthesis of tritiated water during the hydroxylation reaction. Radiolabeled water was quantified following selective adsorption of the isotopic substrate and its metabolite with activated charcoal.
Rat liver mitochondrial extract was used as enzymatic preparation for this assay.
The assay for kynurenine 3-hydroxylase activity was carried out at 37° C. for a time of 30 min. The reaction mixture of a total volume of […] was constituted of […] of suspended extract, 100 mM Tris/Cl buffer pH 8.1, 10 mM EDTA, 100 mM KCl, 0.8 mM NADPH, 0.025 mM L-kynurenine, […] L-(3,5-^3 H)Kynurenine (10 Ci/mmol) and […] of different concentration of inhibitor solutions. After the incubation the reaction was terminated by the addition of 1 mL of 7.5% (w/v) activated charcoal, vortexed and centrifugated for 7 min.
A […] aliquot of supernatant was counted by scintillation spectroscopy in 5 ml of liquid scintillation.

kynurenine-3-hydroxylase [3] = molecular target: T1, kynurenine-3-hydroxylase; test: Kynurenine-3-hydroxylase assay in the rat brain; assay type: biochemical; parameters: from tissue; settings: rat brain homogenate, 50 μM L-kynurenine, 60 min; read-out: Enzyme Inhibition (Brain) IC50
Method: Kynurenine-3-hydroxylase Assay in the Rat Brain
Brain was homogenized in ice-cold 0.32 M sucrose and centrifuged at 12000×g for 30 min at 4° C. The pellet was washed three times with 0.32 M sucrose by centrifugation and suspended in 0.14 M KCl in 20 mM K-phosphate buffer at pH 7 (1 g tissue in 2 ml buffer). The reaction mixture contained: 75 μl of suspended homogenate; 100 μl of substrate solution containing 50 mM K-phosphate buffer pH 7.5, 2 MM MgCl2, 0.4 mM NADPH, and 50 μM L-kynurenine (final concentration),and 25 μl of different concentrations of inhibitor solutions. The reaction was stopped by addition of 200 μl of 1 M HClO4 after 60 min incubation. L-3-hydroxykynurenine formed was quantified by HPLC with coulometric detection at a working voltage of +0.2 V. The column was a 10 cm C18 reversed phase (3 μm. The mobile phase consisted of 950 ml distilled water, 20 ml acetonitrile, 9 ml triethylamine, 5.9 ml phosphoric acid, 100 mg sodium EDTA and 1.5 g heptanesulfonic acid. The flow rate was 1 ml/min.

T1 sequence (O88867 whole entry): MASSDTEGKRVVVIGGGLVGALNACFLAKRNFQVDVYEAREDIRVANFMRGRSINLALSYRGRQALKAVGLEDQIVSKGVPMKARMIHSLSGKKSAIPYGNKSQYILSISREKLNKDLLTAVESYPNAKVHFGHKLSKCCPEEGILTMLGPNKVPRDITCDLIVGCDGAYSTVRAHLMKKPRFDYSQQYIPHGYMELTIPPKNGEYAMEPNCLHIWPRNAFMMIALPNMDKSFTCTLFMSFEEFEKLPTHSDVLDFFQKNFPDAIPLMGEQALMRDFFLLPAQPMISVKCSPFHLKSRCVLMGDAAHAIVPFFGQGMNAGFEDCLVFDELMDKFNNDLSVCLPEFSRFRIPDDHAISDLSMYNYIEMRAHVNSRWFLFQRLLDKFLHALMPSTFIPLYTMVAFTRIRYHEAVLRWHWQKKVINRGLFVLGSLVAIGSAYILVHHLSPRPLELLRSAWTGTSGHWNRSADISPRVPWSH

solubility ([1]; pH = 7.4) [mg/mL]	solubility ([1]; pH = 8) [mg/mL]	IC50 (kynurenine-3-hydroxylase [2]) [nM]	IC50 (kynurenine-3-hydroxylase [3]) [nM]	solubility ([1]; pH = 3) [mg/mL]	Structure (SMILES)
0.2	15	–	–	–	NC(CC(=O)c1ccc(Cl)c(Cl)c1)C(=O)O (racemic) [PNU 156561, (R,S)-2-amino-4-(3',4'-dichlorophenyl)-4-oxo-butanoic acid hydrochloride, reference compound]
18	36	420	120	38	NC(CC(=O)c1ccc(F)c(F)c1)C(=O)O (racemic) [PNU 156830, (R,S)-2-amino-4-(3',4'-difluorophenyl)-4-oxo-2-butanoic acid hydrochloride]
–	–	10900	–	–	N[C@H](CC(=O)c1ccc(F)c(F)c1)C(=O)O [PNU 158392, (R)-2-amino-4-(3',4'-difluorophenyl)-4-oxo-2-butanoic acid hydrochloride]
–	–	220	–	–	N[C@@H](CC(=O)c1ccc(F)c(F)c1)C(=O)O [PNU 158393, (S)-2-amino-4-(3',4'-difluorophenyl)-4-oxo-2-butanoic acid hydrochloride]
